Values of other authors, collected in patent US8318203B2, “Form of administration of racecadotril” (Bioprojet, priority 2006, dated 2012).

Legend:
[1] = racecadotrilate, active metabolite of the pro-drug racecadotril

Row | solubility in water | half-life [1] | SMILES
1 | insoluble in water | – | CC(=O)SCC(Cc1ccccc1)C(=O)NCC(=O)OCc1ccccc1 (racemic) [racecadotril, benzyl (RS)-2-[[2-[(acetylsulphanyl)methyl]-3-phenylpropanoyl]amino]acetate]
2 | – | three to four | O=C(O)CNC(=O)C(CS)Cc1ccccc1 (racemic) [racecadotrilate]
